Laboratory results reported in patent US10105357B2, “Indication of antibiotic drugs for preparation of cancer inhibition pharmaceutical composition” (LAUNX BIOMEDICAL CO., LTD., priority 2014, dated 2018).
Read-outs that look alike come from different tables or passages of the source.

Legend:
TOV-21G = assay: Cell viability analysis, ovarian cancer TOV-21G; type: cell-based, human; settings: TOV-21G, repeated experiment; for viability at 10 µM: Homo sapiens, TOV21G, 72 h, read-out: The results of antibiotic drug inhibiting cancer cell lines (cell viability analysis), TOV-21G
T24 = assay: Cell viability analysis, bladder cancer T24; type: cell-based, human; settings: T24, repeated experiment; for viability at 10 µM: Homo sapiens, T-24, 72 h, read-out: The results of antibiotic drug inhibiting cancer cell lines (cell viability analysis), T24
[1] = system: Hep3B (hepatocellular carcinoma); assay: Cell viability analysis, hepatic cancer Hep3B; type: cell-based, human; settings: Hep3B, repeated experiment; for viability at 10 µM: Homo sapiens, 72 h, read-out: The results of antibiotic drug inhibiting cancer cell lines (cell viability analysis), Hep3B
[2] = system: HeLa (Cervix Adenocarcinoma); assay: Cell viability analysis, cervical cancer HeLa; type: cell-based, human; settings: Homo sapiens, HeLa, 72 h, HeLa
[3] = system: AGS (Gastric Adenocarcinoma); assay: Cell viability analysis, gastric cancer AGS; type: cell-based, human; settings: for viability at 10 µM: Homo sapiens, 72 h
[4] = system: HCT116 (p53+) (Colorectal Carcinoma)
[5] = system: A375 (Amelanotic Melanoma); assay: Cell viability analysis, skin cancer A375; type: cell-based, human; settings: Homo sapiens, A-375, 72 h
[6] = system: LoVo (Colorectal Adenocarcinoma); assay: Cell viability analysis, colon cancer LoVo; type: cell-based, human; settings: LoVo; for viability at 10 µM: Homo sapiens, 72 h
[7] = system: MKN-45 (Gastric Adenocarcinoma); assay: Cell viability analysis, gastric cancer MKN-45; type: cell-based, human; settings: for viability at 10 µM: Homo sapiens, MKN-45, 72 h
[8] = system: MCF7 (Mammary Gland, Adenocarcinoma); assay: Cell viability analysis, breast cancer MCF7; type: cell-based, human; settings: for viability at 10 µM: Homo sapiens, MCF7, 72 h
AsPC-1 = assay: Cell viability analysis, pancreatic cancer AsPC-1; type: cell-based, human; settings: Homo sapiens, ASPC1, 72 h; AsPC-1; repeated experiment; read-out: The results of antibiotic drug inhibiting cancer cell lines (cell viability analysis), AsPC-1
[9] = system: SAS (Tongue squamous cell carcinoma); assay: Cell viability analysis, tongue cancer SAS; type: cell-based, human; settings: SAS, repeated experiment; for viability at 10 µM: Homo sapiens, 72 h, read-out: The results of antibiotic drug inhibiting cancer cell lines (cell viability analysis), SAS
[10] = system: HepG2 (Hepatocellular Carcinoma); assay: Cell viability analysis, hepatic cancer HepG2; type: cell-based, human; settings: for viability at 10 µM: Homo sapiens, HepG2, 72 h
NIH: OVCAR-3 = assay: Cell viability analysis, ovarian cancer NIH: OVCAR-3; type: cell-based, human; settings: NIH-OVCAR-3, repeated experiment; for viability at 10 µM: Homo sapiens, 72 h, read-out: The results of antibiotic drug inhibiting cancer cell lines (cell viability analysis), NIH-OVCAR-3
[11] = system: C-33A (Cervical carcinoma); assay: Cell viability analysis, cervical cancer C-33A; type: cell-based, human; settings: C-33A, repeated experiment
[12] = system: A549 (Lung Adenocarcinoma); assay: Cell viability analysis, lung cancer A549; type: cell-based, human; settings: Homo sapiens, A549, 72 h
[13] = system: PC3 (p53−) (Prostate Adenocarcinoma); assay: Cell viability analysis, prostate cancer PC3; type: cell-based, human; settings: for viability at 10 µM: Homo sapiens, 72 h
[14] = system: TSGH-8301 (Urinary Bladder Carcinoma); assay: Cell viability analysis, bladder cancer TSGH-8301; type: cell-based, human; settings: for viability at 10 µM: Homo sapiens, 72 h
[15] = system: HL-60 (Acute Promyelocytic Leukemia); assay: Cell viability analysis, leukemia HL-60; type: cell-based, human; settings: Homo sapiens, HL-60, 72 h, drug 10 μM, 72 hours, WST-1, OD450 nm; read-out: cell viability (survival rate), HL-60
[16] = system: MDA-MB-231 (Mammary Gland, Adenocarcinoma); assay: Cell viability analysis, breast cancer MDA-MB-231; type: cell-based, human; settings: MDA-MB231, repeated experiment; for viability at 10 µM: Homo sapiens, MDA-MB-231, 72 h, read-out: The results of antibiotic drug inhibiting cancer cell lines (cell viability analysis), MDA-MB231
[17] = system: HI650 (Lung Adenocarcinoma); assay: Cell viability analysis, lung cancer HI650; type: cell-based, human; settings: Homo sapiens, NCI-H1650, 72 h
[18] = system: BCC (basal cell carcinoma); assay: Cell viability analysis, skin cancer BCC; type: cell-based, human; settings: BCC, repeated experiment; for viability at 10 µM: Homo sapiens, 72 h, read-out: The results of antibiotic drug inhibiting cancer cell lines (cell viability analysis), BCC
cancer cell lines = assay: Cell viability analysis (WST-1) on cancer cell lines; type: cell-based, human; settings: drug 10 μM, 72 hours, WST-1; Table 3
[19] = system: 786-O (Renal adenocarcinoma); assay: Cell viability analysis, renal cancer 786-O; type: cell-based, human; settings: 786-O, repeated experiment; for viability at 10 µM: Homo sapiens, 786-0, 72 h, read-out: The results of antibiotic drug inhibiting cancer cell lines (cell viability analysis), 786-O
BxPC-3 = assay: Cell viability analysis, pancreatic cancer BxPC-3; type: cell-based, human; settings: Homo sapiens, 72 h; BxPC-3; repeated experiment; read-out: The results of antibiotic drug inhibiting cancer cell lines (cell viability analysis), BxPC-3
U-2OS = assay: Cell viability analysis, osteosarcoma U-2OS; type: cell-based, human; settings: U2OS, repeated experiment
[20] = repeated experiment, read-out: The results of antibiotic drug inhibiting cancer cell lines (cell viability analysis), HeLa
[21] = AGS, repeated experiment, read-out: The results of antibiotic drug inhibiting cancer cell lines (cell viability analysis), AGS
[22] = drug 10 μM, 72 hours, WST-1, OD450 nm, read-out: cell viability (survival rate), AGS
[23] = A375, repeated experiment, read-out: The results of antibiotic drug inhibiting cancer cell lines (cell viability analysis), A375
[24] = drug 10 μM, 72 hours, WST-1, OD450 nm, read-out: cell viability (survival rate), A375
[25] = read-out: The results of antibiotic drug inhibiting cancer cell lines (cell viability analysis), LoVo, repeated experiment
[26] = MKN-45, repeated experiment, read-out: The results of antibiotic drug inhibiting cancer cell lines (cell viability analysis), MKN-45
[27] = drug 10 μM, 72 hours, WST-1, OD450 nm, read-out: cell viability (survival rate), MKN-45
[28] = MCF-7, repeated experiment, read-out: The results of antibiotic drug inhibiting cancer cell lines (cell viability analysis), MCF-7
[29] = drug 10 μM, 72 hours, WST-1, OD450 nm, read-out: cell viability (survival rate), MCF7
[30] = HepG2, repeated experiment, read-out: The results of antibiotic drug inhibiting cancer cell lines (cell viability analysis), HepG2
[31] = drug 10 μM, 72 hours, WST-1, OD450 nm, read-out: cell viability (survival rate), HepG2
[32] = A549, repeated experiment, read-out: The results of antibiotic drug inhibiting cancer cell lines (cell viability analysis), A549
[33] = drug 10 μM, 72 hours, WST-1, OD450 nm, read-out: cell viability (survival rate), A549
[34] = PC-3, repeated experiment, read-out: The results of antibiotic drug inhibiting cancer cell lines (cell viability analysis), PC-3
[35] = drug 10 μM, 72 hours, WST-1, OD450 nm, read-out: cell viability (survival rate), PC3
[36] = TSGH-8301, repeated experiment, read-out: The results of antibiotic drug inhibiting cancer cell lines (cell viability analysis), TSGH-8301
[37] = drug 10 μM, 72 hours, WST-1, OD450 nm, read-out: cell viability (survival rate), TSGH
[38] = H1650, repeated experiment, read-out: The results of antibiotic drug inhibiting cancer cell lines (cell viability analysis), H1650
[39] = drug 10 μM, 72 hours, WST-1, OD450 nm, read-out: cell viability (survival rate), H1650

CC(C)CN(C[C@@H](O)[C@H](Cc1ccccc1)NC(=O)O[C@H]1CCOC1)S(=O)(=O)c1ccc(N)cc1 [Amprenavir (Agenerase), Amprenavir]
viability at 10 µM (TOV-21G): 97%
viability at 10 µM (T24): 90.5%
viability at 10 µM [1]: 95.2%
viability at 10 µM [2, 20]: 67.9%
viability at 10 µM ([2]; drug 10 μM, 72 hours, WST-1, OD450 nm, read-out: cell viability (survival rate), HeLa): 67.5%
viability at 10 µM [3, 21]: 98.6%
viability at 10 µM [3, 22]: 58.8%
viability [4]: 94.5%
viability at 10 µM [5, 23]: 88.1%
viability at 10 µM [5, 24]: 77.6%
viability at 10 µM [6, 25]: 95.5%
viability at 10 µM ([6]; read-out: cell viability (survival rate), LoVo, drug 10 μM, 72 hours, WST-1, OD450 nm): 77.4%
viability at 10 µM [7, 26]: 103%
viability at 10 µM [7, 27]: 52.1%
viability at 10 µM [8, 28]: 68.3%
viability at 10 µM [8, 29]: 37%
viability at 10 µM (AsPC-1): 90.4%
viability at 10 µM [9]: 83.3%
viability at 10 µM [10, 30]: 94.5%
viability at 10 µM [10, 31]: 90.9%
viability at 10 µM (NIH: OVCAR-3): 106%
viability at 10 µM ([11]; Homo sapiens, 72 h, read-out: The results of antibiotic drug inhibiting cancer cell lines (cell viability analysis), C-33A): 109%
viability at 10 µM [12, 32]: 79.9%
viability at 10 µM [12, 33]: 53.7%
viability at 10 µM [13, 34]: 87.4%
viability at 10 µM [13, 35]: 80.4%
viability at 10 µM [14, 36]: 96.1%
viability at 10 µM [14, 37]: 57%
viability at 10 µM [15]: 111%
viability at 10 µM [16]: 83.5%
viability at 10 µM [17, 38]: 88.1%
viability at 10 µM [17, 39]: 69.5%
viability at 10 µM [18]: 74.5%
inhibition effect on different cancer cell lines (cancer cell lines): significant inhibition effect
viability at 10 µM [19]: 96.7%

CC(C)c1nc(N(C)S(C)(=O)=O)nc(-c2ccc(F)cc2)c1/C=C/[C@@H](O)C[C@@H](O)CC(=O)O [Rosuvastatin calcium (Crestor), Rosuvastatin calcium]
viability at 10 µM (TOV-21G): 80.4%
viability at 10 µM (T24): 75.9%
viability at 10 µM [1]: 109%
viability at 10 µM [2, 20]: 97.1%
viability at 10 µM [3, 21]: 104%
viability at 10 µM [3, 22]: 55.9%
viability [4]: 85.6%
viability at 10 µM (BxPC-3): 65.5%
viability at 10 µM [5, 23]: 105%
viability at 10 µM [5, 24]: 55.6%
viability at 10 µM [6, 25]: 103%
viability at 10 µM [7, 26]: 110%
viability at 10 µM [7, 27]: 83.8%
viability at 10 µM (U-2OS; Homo sapiens, 72 h, read-out: The results of antibiotic drug inhibiting cancer cell lines (cell viability analysis), U2OS): 102%
viability at 10 µM [8, 28]: 85.9%
viability at 10 µM [8, 29]: 88.9%
viability at 10 µM (AsPC-1): 80.2%
viability at 10 µM [9]: 93.3%
viability at 10 µM [10, 30]: 108%
viability at 10 µM [10, 31]: 73.7%
viability at 10 µM (NIH: OVCAR-3): 102%
viability at 10 µM [12, 32]: 95.1%
viability at 10 µM [12, 33]: 97%
viability at 10 µM [13, 34]: 95.7%
viability at 10 µM [13, 35]: 94.3%
viability at 10 µM [14, 36]: 113%
viability at 10 µM [14, 37]: 56%
viability at 10 µM [15]: 81.7%
viability at 10 µM [16]: 90.2%
viability at 10 µM [17, 38]: 76.7%
viability at 10 µM [17, 39]: 80.8%
viability at 10 µM [18]: 104%
inhibition effect on different cancer cell lines (cancer cell lines): significant inhibition effect
viability at 10 µM [19]: 92.5%

CN[C@H](CC(C)C)C(=O)N[C@H]1C(=O)N[C@@H](CC(N)=O)C(=O)N[C@H]2C(=O)N[C@H]3C(=O)N[C@H](C(=O)N[C@H](C(=O)O)c4cc(O)cc(O)c4-c4cc3ccc4O)[C@H](O)c3ccc(c(Cl)c3)Oc3cc2cc(c3O[C@@H]2O[C@H](CO)[C@@H](O)[C@H](O)[C@H]2O[C@H]2C[C@](C)(N)[C@H](O)[C@H](C)O2)Oc2ccc(cc2Cl)[C@H]1O.Cl [Vancomycin HCl (Vancocin)]
The results of antibiotic drug inhibiting cancer cell lines (cell viability analysis), TOV-21G (TOV-21G): 97.4
The results of antibiotic drug inhibiting cancer cell lines (cell viability analysis), T24 (T24): 95.32
The results of antibiotic drug inhibiting cancer cell lines (cell viability analysis), Hep3B [1]: 94.6
The results of antibiotic drug inhibiting cancer cell lines (cell viability analysis), AGS ([3]; AGS, repeated experiment): 108.9
viability [4]: 94.8%
The results of antibiotic drug inhibiting cancer cell lines (cell viability analysis), LoVo ([6]; repeated experiment): 101
The results of antibiotic drug inhibiting cancer cell lines (cell viability analysis), MKN-45 ([7]; MKN-45, repeated experiment): 116.9
The results of antibiotic drug inhibiting cancer cell lines (cell viability analysis), U2OS (U-2OS): 62.87
The results of antibiotic drug inhibiting cancer cell lines (cell viability analysis), MCF-7 ([8]; MCF-7, repeated experiment): 91.83
The results of antibiotic drug inhibiting cancer cell lines (cell viability analysis), SAS [9]: 102
The results of antibiotic drug inhibiting cancer cell lines (cell viability analysis), HepG2 ([10]; HepG2, repeated experiment): 92.06
The results of antibiotic drug inhibiting cancer cell lines (cell viability analysis), NIH-OVCAR-3 (NIH: OVCAR-3): 105.6
The results of antibiotic drug inhibiting cancer cell lines (cell viability analysis), C-33A [11]: 100.6
The results of antibiotic drug inhibiting cancer cell lines (cell viability analysis), PC-3 ([13]; PC-3, repeated experiment): 104.2
The results of antibiotic drug inhibiting cancer cell lines (cell viability analysis), TSGH-8301 ([14]; TSGH-8301, repeated experiment): 118
The results of antibiotic drug inhibiting cancer cell lines (cell viability analysis), MDA-MB231 [16]: 90.26
The results of antibiotic drug inhibiting cancer cell lines (cell viability analysis), BCC [18]: 96.78
The results of antibiotic drug inhibiting cancer cell lines (cell viability analysis), 786-O [19]: 102.3
